Several values for one entry are separate records, joined by “and”; a condition that tells them apart may be missing. Equal entries are not always repeated.
Tested on: 556581-035-R-J1-PDC complex spheroid viability
Experiment: Anticancer human tumor 556581-035-R-J1-PDC patient-derived ovarian carcinoma cell line growth inhibition
Settings: for viability, T/C: stronger effect = lower value
Description: Multicellular complex tumor spheroid response to LSD1 Inhibitor Iadademstat in combination with a variety of drugs and investigational agents in selected tumor cell lines
The current study was undertaken to assess response to LSD1 inhibitors in combination with standard-of-care drugs and investigational agents in solid tumor complex spheroid models as well as in the K-562 leukemia. Complex spheroids include a stromal component modeled by human endothelial cells (HUVEC) and fibroblasts modeled by human mesenchymal stem cells (MSCs). The concentration ranges selected for each drug and investigational agent were based upon clinically achievable concentrations if the clinical Cmax of the agent was known.
Compounds. The drugs and investigational agents used in this study are listed on Table 1. All of the agents used, including staurosporine (NSC755774) and gemcitabine (NSC613327), were obtained from the Developmental Therapeutics Program, NCI. FDA-approved anticancer drugs are available from the NCI at http://dtp.nci.nih.gov/branches/dscb/oncology_drugset_explanation.html. Drugs and investigational agents were >95% pure by proton nuclear magnetic resonance (NMR) and liquid chromatography/mass spectrometry (LC/MS). Stock solutions were prepared at 400x in DMSO, stored at -70 degrees C, and diluted in fresh medium prior to their use. The final concentration of DMSO in cell culture wells never exceeded 0.25% (v/v). The FDA-approved anticancer drug set is available from the Developmental Therapeutics Program at https://dtp.cancer.gov/organization/dscb/obtaining/available_plates.htm. All drugs and investigational agents were tested over a range starting from a high concentration at or near the clinical Cmax and decreasing in half-log increments. If the clinical Cmax for an agent had not been determined, the highest concentration tested was 10 microM.
Cell Lines. The patient-derived cancer cell (PDC) lines: 292921-168-R-J2-PDC, K24384-001-R-PDC, and 521955-158-R2-J5-PDC pancreatic carcinomas, 556581-035-R-J1 ovarian carcinoma, 324938-238-R-J1-PDC, 855422-203-R-J1-PDC and 883617-216-R-J1-PDC urothelial bladder carcinomas, 743489-274-T-PDC renal cell carcinoma, 138582-R-J1 Merkel cell tumor, K60290-347-R-J1 and K57222-313-R-J1-PDC glioblastomas, 653999-131-R-J2-PDC, LG0703-F948-PDC, and 349418-098-R-PDC non-small cell lung carcinomas, 885512-296-R-J2-PDC, 171881-019-R-J1-PDC breast carcinomas and 186277-243-T-J2-PDC and 233499-124-R-J2-PDC colon carcinomas were obtained from the NCI Patient-Derived Models Repository (PDMR, https://pdmr.cancer.gov). The established cell lines NCI/ADR-RES (RRID:CVCL_14520 and OVCAR-5 (RRID:CVCL_1628) ovarian carcinomas, 786-O (RRID:CVCL_1051) and A498 (RRID:CVCL_A498) renal cell carcinoma, NCI-H211 (ATCC, cat. CRL-5824; RRID:CVCL_1529), NCI-H196 (ATCC, cat. CRL-5823, RRID:CVCL_1509), SW 1271 (ATCC, cat. CRL-2177, RRID:CVCL_1716) and NCI-H1876 (ATCC, cat. CRL-5902, RRID:CVCL_1503) small cell lung carcinomas, MDA-MB-231 (RRID:CVCL_0062) and MDA-MB-468 (RRID:CVCL_0419)breast carcinomas (10-12). Pooled donor human umbilical vein endothelial cells (HUVEC, Lonza, cat. CC-2519) and human mesenchymal stem cells (hMSC, Lonza, cat. PT-2501) were purchased from Lonza (Walkersville, MD).
Cell Culture. All cells were maintained in an incubator at 37 degrees C and 5% CO2 with 95% humidity. The PDC lines were cultured according to standard operating procedures established by the NCI PDMR (https://pdmr.cancer.gov). Briefly all PDCs were thawed and cultured in Matrigel-coated flasks prepared with a working solution of 1X Ham's F-12 nutrient mix, without supplementation (Invitrogen, Waltham, MA, cat. 11765054), 100 U/mL penicillin-streptomycin (Invitrogen, cat. 15140122), and 2.5% Matrigel (Corning Inc., Corning, NY, cat. 354248) for the first three passages. […]
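Also: spheroids exposed to agents for seven days.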
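For viability, T/C in this document: 100% = DMSO vehicle control wells.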

Compound	IC50 (curve of compound)	viability, T/C (compound 0.0316 µM)	viability, T/C (compound 0.1 µM)	viability, T/C (compound 0.316 µM)	viability, T/C (compound 1 µM)	viability, T/C (compound 0.00949 µM)	viability, T/C (compound 0.03 µM)	viability, T/C (compound 0.0949 µM)	viability, T/C (compound 0.3 µM)	further results
NC1CC1c1ccc(-c2cccc(O)c2)cc1 (centres undefined)	–	–	91.5% [middle of 4 runs]	–	–	–	–	–	–	viability, T/C (compound 3.16 µM): 89.2% [middle of 24 runs]; IC50 (compound alone, run of 02/21/2022): > 10000 nM
NC1CCC(NC2CC2c2ccccc2)CC1 (centres undefined)	–	–	–	85.1% and 84.9%	–	–	–	–	–	IC50 (compound alone, run of 02/15/2022): > 10000 nM
Nc1ccccc1NC(=O)c1ccc(CNC(=O)OCc2cccnc2)cc1	133 nM and 97.8 nM	–	–	–	–	88.5% and 100%	82% and 76.7%	56.3% and 50.2%	30.6% and 28.9%	viability, T/C (compound 0.949 µM): 13.6% and 7.68%; viability, T/C (compound 3 µM): 1.18% and 0.51%
Nc1ccn(C2OC(CO)C(O)C2(F)F)c(=O)n1 (centres undefined)	2.64 nM and 1.98 nM	–	–	–	–	36% and 23.9%	36.7% and 26.2%	40.7% and 26.8%	35.3% and 23.3%	viability, T/C (compound 0.000949 µM): 73.7% and 82.5%; viability, T/C (compound 0.003 µM): 48.6% and 31.7%
Nc1ncn(C2CC(O)C(CO)O2)c(=O)n1 (centres undefined)	> 1000 nM	108% and 99.9%	84.2% and 79.4%	88.6% and 107%	80.9% and 101%	–	–	–	–	viability, T/C (compound 0.00316 µM): 98.7% and 115%; viability, T/C (compound 0.01 µM): 102% and 100%
Nc1ncn(C2CC(O)C(CO)S2)c(=O)n1 (centres undefined)	184 nM and 48 nM	–	–	–	–	94.5% and 81.4%	75.4% and 63.8%	56.8% and 32.5%	45.3% and 17.8%	viability, T/C (compound 0.000949 µM): 92.4% and 104%; viability, T/C (compound 0.003 µM): 110% and 102%
O=C(C=Cc1cccc(S(=O)(=O)Nc2ccccc2)c1)NO	111 nM and 68.4 nM	–	–	–	–	88.8% and 89.7%	77.9% and 83.8%	54.2% and 35.2%	23.9% and 15.3%	viability, T/C (compound 0.949 µM): 1.68% and 0.7%; viability, T/C (compound 3 µM): 0.32% and 3.39%

Continued, in another order:

IC50 (curve of compound)	Compound	viability, T/C (compound 0.0316 µM)	viability, T/C (compound 0.1 µM)	viability, T/C (compound 0.316 µM)	viability, T/C (compound 1 µM)	viability, T/C (compound 0.00949 µM)	viability, T/C (compound 0.03 µM)	viability, T/C (compound 0.0949 µM)	viability, T/C (compound 0.3 µM)	further results
993 nM and 1070 nM	COc1ccc([C@@H](O)c2cc(-c3ncnc4cc(N5CCOCC5)ccc34)c(F)cc2Cl)nn1	91.9% and 89.7%	83.5% and 83.2%	66.5% and 63.4%	50.3% and 48.7%	–	–	–	–	viability, T/C (compound 3.16 µM): 36.8% and 42.1%; viability, T/C (compound 10 µM): 29.6% and 27.5%
> 100 nM	Cn1ncnc1C1c2n[nH]c(=O)c3cc(F)cc(c23)NC1c1ccc(F)cc1 (centres undefined)	93.6% and 103%	98.9% and 91.4%	–	–	–	–	–	–	viability, T/C (compound 0.000316 µM): 102% and 114%; viability, T/C (compound 0.001 µM): 118% and 97.2%; viability, T/C (compound 0.00316 µM): 105% and 86.9%; viability, T/C (compound 0.01 µM): 108% and 86.5%
> 3000 nM and 407 nM	NS(=O)(=O)OCC1CC(n2ccc3c(NC4CCc5ccccc54)ncnc32)CC1O (centres undefined)	–	–	–	–	121% and 104%	122% and 77%	111% and 74%	106% and 51.3%	viability, T/C (compound 0.949 µM): 91.9% and 37.8%; viability, T/C (compound 3 µM): 56.7% and 38%
329 nM and 67.6 nM	O=C(C=Cn1cnc(-c2cc(C(F)(F)F)cc(C(F)(F)F)c2)n1)NNc1cnccn1	83.4% and 74%	68.8% and 37.2%	–	15.9% and 3.46%	–	–	–	–	viability, T/C (compound 0.00316 µM): 84.8%; viability, T/C (compound 0.01 µM): 82.9% and 87.8%
> 10000 nM	O=C(c1cc(Cc2n[nH]c(=O)c3ccccc23)ccc1F)N1CCN(C(=O)C2CC2)CC1	95.3% and 96.8%	94.3% and 94.5%	98.2% and 89.4%	98.1% and 89.3%	–	–	–	–	viability, T/C (compound 3.16 µM): 87.5% and 78.2%; viability, T/C (compound 10 µM): 75.2% and 64.5%
